# Experimental data: article PMC8330742, “New benzothieno[2,3-c]pyridines as non-steroidal CYP17 inhibitors: design, synthesis, anticancer screening, apoptosis induction, and in silico ADME profile studies” (Journal of Enzyme Inhibition and Medicinal Chemistry, 2021)
# Legend:
# Test in all cases: NCI-60 SRB screen;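 as to IC50: half-maximal inhibitory concentration read as cell viability unlike GI50 net growth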
# CCRF-CEM = format: cell-based
# HL-60(TB) = format: cell-based, human
# K-562 = format: cell-based, human; conditions: K-562
# MOLT-4 = format: cell-based; conditions: MOLT-4
# SR = format: cell-based
# A549/ATCC = format: cell-based, human
# EKVX = format: cell-based, human
# HOP-62 = format: cell-based, human; conditions: HOP-62
# HOP-92 = format: cell-based, human; conditions: HOP-92
# NCI-H226 = format: cell-based, human; conditions: NCI-H226
# NCI-H23 = format: cell-based, human; conditions: NCI-H23
# NCI-H322M = format: cell-based, human
# NCI-H460 = format: cell-based, human; conditions: NCI-H460
# NCI-H522 = format: cell-based, human; conditions: NCI-H522
# COLO 205 = format: cell-based, human; conditions: COLO 205
# HCC-2998 = format: cell-based, human; conditions: HCC-2998
# HCT-116 = format: cell-based, human; conditions: HCT-116
# HCT-15 = format: cell-based, human; conditions: HCT-15
# HT-29 = format: cell-based
# KM12 = format: cell-based, human; conditions: KM12
# SW-620 = format: cell-based; conditions: SW-620
# SF-268 = format: cell-based, human; conditions: SF-268
# [1] = Homo sapiens, single dose 10^−5 M, read-out: Growth inhibition (%)
# [2] = Homo sapiens, HT-29, HT29, five dose
smiles,measurement,setting,value
"N#CC1C(=O)NC(c2ccccc2[N+](=O)[O-])c2sc3c(F)cccc3c21 (stereo not drawn) [Compound 5c, 4-Cyano-8-fluoro-1-(2-nitrophenyl)-1,2-dihydro[1]benzothieno[2,3-c] pyridin-3(4H)-one]",GI50,"CCRF-CEM; Homo sapiens, five dose",26.3 µM
same,IC50,"CCRF-CEM; Homo sapiens, five dose",37.2 µM
same,LC50,"CCRF-CEM; Homo sapiens, five dose",> 100 µM
same,inhibition at 10 µM,CCRF-CEM; [1],13.2%
same,TGI,CCRF-CEM; five dose,100 µM
same,TGI,"HL-60(TB); HL-60(TB), five dose",100 µM
same,GI50,"HL-60(TB); Homo sapiens, HL-60",14.2 µM
same,IC50,"HL-60(TB); Homo sapiens, HL-60",28.2 µM
same,inhibition at 10 µM,"HL-60(TB); Homo sapiens, HL-60, read-out: Growth inhibition (%)",18.8%
same,GI50,"K-562; Homo sapiens, K562, five dose",1980 nM
same,IC50,"K-562; Homo sapiens, K562, five dose",3.16 µM
same,inhibition at 10 µM,"K-562; Homo sapiens, K562, single dose 10^−5 M, read-out: Growth inhibition (%)",64.1%
same,TGI,K-562; five dose,100 µM
same,GI50,"MOLT-4; Homo sapiens, five dose",19.1 µM
same,IC50,"MOLT-4; Homo sapiens, five dose",30.9 µM
same,LC50 (50% lethal concentration),"MOLT-4; Homo sapiens, five dose",> 100 µM
same,inhibition at 10 µM,MOLT-4; [1],13.5%
same,TGI,MOLT-4; five dose,100 µM
same,GI50,"SR; Homo sapiens, five dose",14.1 µM
same,IC50,"SR; Homo sapiens, five dose",25.1 µM
same,LC50,"SR; Homo sapiens, five dose",> 100 µM
same,inhibition at 10 µM,SR; [1],33.2%
same,TGI,SR; five dose,100 µM
same,GI50,"A549/ATCC; Homo sapiens, five dose",1310 nM
same,IC50,"A549/ATCC; Homo sapiens, five dose",2340 nM
same,inhibition at 10 µM,A549/ATCC; [1],52.8%
same,TGI,A549/ATCC; five dose,100 µM
same,GI50,"EKVX; Homo sapiens, five dose",2690 nM
same,IC50,"EKVX; Homo sapiens, five dose",13.8 µM
same,inhibition at 10 µM,EKVX; [1],35.3%
same,TGI,EKVX; five dose,100 µM
same,TGI,HOP-62; five dose,100 µM
same,GI50,"HOP-62; Homo sapiens, five dose",10 µM
same,IC50,"HOP-62; Homo sapiens, five dose",22.9 µM
same,inhibition at 10 µM,HOP-62; [1],66.3%
same,TGI,HOP-92; five dose,100 µM
same,GI50,"HOP-92; Homo sapiens, five dose",12.6 µM
same,IC50,"HOP-92; Homo sapiens, five dose",79.4 µM
same,inhibition at 10 µM,HOP-92; [1],115%
same,GI50,"NCI-H226; Homo sapiens, five dose",270 nM
same,IC50,"NCI-H226; Homo sapiens, five dose",871 nM
same,inhibition at 10 µM,NCI-H226; [1],31.2%
same,TGI,NCI-H226; five dose,100 µM
same,GI50,"NCI-H23; Homo sapiens, five dose",7.33 µM
same,IC50,"NCI-H23; Homo sapiens, five dose",19.5 µM
same,inhibition at 10 µM,NCI-H23; [1],32.9%
same,TGI,NCI-H23; five dose,100 µM
same,GI50,"NCI-H322M; Homo sapiens, five dose",7.37 µM
same,IC50,"NCI-H322M; Homo sapiens, five dose",23.4 µM
same,inhibition at 10 µM,NCI-H322M; [1],98%
same,TGI,NCI-H322M; five dose,100 µM
same,GI50,"NCI-H460; Homo sapiens, five dose",290 nM
same,IC50,"NCI-H460; Homo sapiens, five dose",372 nM
same,inhibition at 10 µM,NCI-H460; [1],11.5%
same,TGI,NCI-H460; five dose,100 µM
same,GI50,"NCI-H522; Homo sapiens, five dose",18.4 µM
same,IC50,"NCI-H522; Homo sapiens, five dose",41.7 µM
same,inhibition at 10 µM,NCI-H522; [1],17.3%
same,TGI,NCI-H522; five dose,100 µM
same,TGI,COLO 205; five dose,100 µM
same,GI50,"COLO 205; Homo sapiens, five dose",10.3 µM
same,IC50,"COLO 205; Homo sapiens, five dose",17.8 µM
same,inhibition at 10 µM,COLO 205; [1],29.9%
same,TGI,HCC-2998; five dose,94.90 µM
same,GI50,"HCC-2998; Homo sapiens, five dose",17.4 µM
same,IC50,"HCC-2998; Homo sapiens, five dose",33.9 µM
same,inhibition at 10 µM,HCC-2998; [1],6.16%
same,TGI,HCT-116; five dose,44.50 µM
same,GI50,"HCT-116; Homo sapiens, five dose",140 nM
same,IC50,"HCT-116; Homo sapiens, five dose",195 nM
same,inhibition at 10 µM,HCT-116; [1],89%
same,TGI,HCT-15; five dose,100 µM
same,GI50,"HCT-15; Homo sapiens, five dose",11.4 µM
same,IC50,"HCT-15; Homo sapiens, five dose",16.6 µM
same,inhibition at 10 µM,HCT-15; [1],12.3%
same,TGI,"HT-29; HT29, five dose",100 µM
same,GI50,HT-29; [2],19.6 µM
same,IC50,HT-29; [2],25.7 µM
same,LC50 (concentration killing 50% of cells),HT-29; [2],> 100 µM
same,inhibition at 10 µM,"HT-29; Homo sapiens, HT-29, single dose 10^−5 M, read-out: Growth inhibition (%)",14.7%
same,GI50,"KM12; Homo sapiens, five dose",19.9 µM
same,IC50,"KM12; Homo sapiens, five dose",32.4 µM
same,inhibition at 10 µM,KM12; [1],8.58%
same,TGI,KM12; five dose,100 µM
same,GI50,"SW-620; Homo sapiens, five dose",370 nM
same,IC50,"SW-620; Homo sapiens, five dose",676 nM
same,LC50 (50% lethal concentration),"SW-620; Homo sapiens, five dose",> 100 µM
same,inhibition at 10 µM,SW-620; [1],88.1%
same,TGI,SW-620; five dose,100 µM
same,GI50,"SF-268; Homo sapiens, five dose",16.4 µM
same,IC50,"SF-268; Homo sapiens, five dose",46.8 µM
same,inhibition at 10 µM,SF-268; [1],14.4%
same,TGI,SF-268; five dose,100 µM
